Source: US20030203963A1, “Antimicrobial agent” (priority 2001, published 2003)

Assays:
[1] = tested on: Ps. fluorescens 10460; assay: Bioscreen growth inhibition test; assay type: cell-based, Pseudomonas fluorescens; conditions: BS010510, 24 h/30, APP20010213
Experimental: (§1) For broth cultures and Bioscreen testing most bacteria were grown in Brain Heart Infusion (BHI, Oxoid, pH 7.4). Lactobacillus sake A10 was grown in de Man, Rogosa, Sharpe medium ([…], Oxoid). Yeasts were grown in Sabouraud Liquid medium (SLM, Oxoid). Most bacteria were cultured at 30° C. Lactic acid bacteria were grown on solid medium in enriched CO2 atmosphere. Clostridium species were grown in Reinforced Clostridial Medium (RCM) at 37° C. anaerobically. Brochothrix thermosphacta fungi and yeasts were grown at 25° C. Fungi were cultured on Malt Extract Agar (MEA, Oxoid).
(§2) An automated Microbiology Reader Bioscreen C was used to measure growth curves of the strains in the presence and absence of APP. The Bioscreen C measures the development of turbidity (i.e. growth) kinetically by vertical photometry in 200 wells of a honeycomb microtitre plate, simultaneously. The system consists of a Bioscreen C analyser, which is an incubator and measurement unit, integrated with a PC, software (BioLink v 5.30), printer and a ‘Honeycomb 2’ cuvette multiwell plate. Growth curve data can be analysed within the BioLink software or exported to programs such as Excel.
(§3) Broth culture media were dispensed in 270 μl volumes into the wells as directed. Serial dilutions of a filter-sterilised APP stock solution were then dispensed into the same wells, as appropriate. The wells were inoculated with 30 μl of an appropriately diluted overnight broth culture or spore suspension, to give a final inoculum level of […]. The tests were incubated in the Bioscreen C for either 24 h at 30° C., or 72 h at 25° C. (depending on the micro-organism under investigation) with readings taken every 20 minutes after the trays were shaken. After the incubation period was complete the data were exported to Excel for analysis.

[2] = tested on: Ps. fluorescens 1331; assay: Bioscreen growth inhibition test; assay type: cell-based, Pseudomonas fluorescens; conditions: BS010510, 24 h/30, APP20010213
Experimental: as §1, §2, §3

[3] = tested on: Ps. fluorescens 327; assay: Bioscreen growth inhibition test; assay type: cell-based, Pseudomonas fluorescens; conditions: BS010510, 24 h/30, APP20010213
Experimental: as §1, §2, §3

[4] = tested on: Ps. fluorescens 3756; assay: Bioscreen growth inhibition test; assay type: cell-based, Pseudomonas fluorescens; conditions: BS010411, 24 h/30° C.
Experimental: as §1, §2, §3

[5] = tested on: Salmonella sp. S19; assay: Bioscreen growth inhibition test; assay type: cell-based; conditions: BS010510, 24 h/30, APP20010213
Experimental: as §1, §2
Broth culture media were dispensed in 270 μl volumes into the wells as directed. […] (depending on the micro-organism under investigation) with readings taken every 20 minutes after the trays were shaken. […]

[6] = tested on: L monocytogenes S23; assay: Chicken soup trial at 8° C.; assay type: cell-based, Listeria monocytogenes; conditions: chicken soup at 8° C., TCSM010521, APP215
Excerpt: (§4) A local supermarket brand of cream of chicken soup was used as a model food system. 600 g packs were purchased from the local supermarket. This was a ‘fresh home-made type’ of soup that was stored in the chill cabinet, with a short shelf life. It was chosen because it is a rich, nutritious food system containing a range of food components including meat, dairy and vegetable.
(§5) Ingredients were labelled as: chicken stock (water, duck fat, chicken, salt, flavourings, yeast extracts, pork gelatine, glucose syrup, vegetable concentrate, milk protein, sugar, malto-dextrin, vegetable oil, citric acid, lactose, chicken fat), ilk, chicken (9%), cream (8%), onion, potato, vegetable oil, modified maize starch, wheat flour, lemon juice, salt, white pepper. pH 5.912. Protein: 3.3%; carbohydrate: 4.7%; fat: 7.2%; fibre: 0.2%; sodium: 0.1%
(§6) For the test the soup was mixed 2:1 in water (to facilitate sampling and mixing) and sterilised by autoclaving at 121° C. for 15 minutes. For each experiment the pH of the soup was recorded; this was between pH 5.79-5.88.
For TCS010521/8 (incubated at 8° C.), samples were prepared in 27.8 g quantities. 1.5 g of an APP stock solution was added, and the tests inoculated with 0.3 ml of a suitably diluted cell or spore suspension to give a final inoculum of ca. 10^3 cfu/g. APP was tested at 0, 500 and 1000 ppm, and batch number APP20010213 (at 169 mg/ml) was used. The tests were sampled by viable count and then incubated at 8° C. and tested on a twice-weekly basis.

[7] = tested on: S. cerevisiae 9763; assay: Chicken soup trial at 20° C.; assay type: cell-based, Saccharomyces cerevisiae; conditions: 2000 ppm; chicken soup at 20° C., TCSM010430, APP20010213
Excerpt: as §4, §5, §6
For TCS010430/20 (incubated at 20° C.) samples were prepared in 18.8 g quantities, to which 1 g of a suitable filter-sterilised APP stock solution was added and an appropriately diluted 0.2 ml inoculum. Great care was again taken to ensure homogeneous distribution of the APP and micro-organisms. […]

[8] = tested on: B. cereus; assay: Test in milk; assay type: cell-based, Bacillus cereus; conditions: TMGB010605; for Control for: milk at 20° C.
Experimental: 8.9 ml samples of UHT milk containing 0.5% glucose and the indicator bromocresol purple (0.01%) were prepared and sterilised by autoclaving. The pH before APP addition was pH 6.65. Appropriate stock solutions of APP batch number APP20010215 (at 138 mg/ml) were prepared and filter sterilised. 1 ml of each was added to the milk to prepare tests containing 0, 1000 and 2000 ppm APP. Tests were then inoculated with 100 μl of diluted overnight broth cultures or spore suspensions to give a final inoculum level of ca. 10^3 cfu/ml. These and uninoculated tests were incubated at 20 and 8° C. and examined daily for visible changes compared to uninoculated control.

[9] = tested on: B. cereus 204; assay: Test in cooked minced beef slurry; assay type: cell-based, Bacillus cereus; conditions: minced beef slurry at 8° C., pH 6.24, TCM010619
Experimental: (§7) 1 kg of minced beef, purchased from the local butcher, was mixed with 1 litre of BHI. 200 g portion of this meat slurry was autoclaved. When the meat had cooled, the pH was recorded (pH 6.24), and each pot was inoculated with 2.0 ml of 10^5 spores or cells and the meat re-mixed thoroughly. Each inoculated 200 g pot was distributed as 3×50 g portions. To each pot 1 ml of SDW, 5% or 10% APP (Batch No. APP20010215) was added, and the meat was again mixed thoroughly. An initial viable count was performed, the meat was incubated at 8° C. and sampled twice weekly. The pH of the cooked minced beef slurry was 6.24.

[10] = tested on: Br. thermosphacta CRA78883; assay: Test in cooked minced beef slurry; assay type: cell-based, Brochothrix thermosphacta; conditions: 2000 ppm; minced beef slurry at 8° C., pH 6.24, TCM010619
Experimental: as §7

O=C1CC(CO)OC=C1O (stereo not shown) [APP, Ascopyrone P]
APP level causing significant inhibition [1]: 1000 ppm | APP level causing total inhibition [1]: 2000 ppm | APP level causing total inhibition [2]: 1000 ppm | APP level causing total inhibition [3]: 1000 ppm | APP level causing significant inhibition ([4]; APP 20010213): 1000 ppm | APP level causing total inhibition ([4]; APP 20010213): 2000 ppm | APP level causing significant inhibition ([4]; APP 20010215): 1000 ppm | APP level causing total inhibition ([4]; APP 20010215): 2000 ppm | APP level causing total inhibition [5]: 4000 ppm | Effect on growth rate ([6]; 500 ppm): Slight reduction of growth rate with 500 and 1000 ppm | Effect on growth ([6]; 1000 ppm): No total inhibition by 1000 ppm | Effect on growth rate ([6]; 1000 ppm): Slight reduction of growth rate with 500 and 1000 ppm | Effect on growth [7]: No effect with 2000 ppm | Control for ([8]; 1000 ppm): 4 days | Control of growth ([8]; 2000 ppm, milk at 8° C.): No control observed | Control for ([8]; 2000 ppm): 6 days | Effect on growth ([9]; 1000 ppm): 1000 ppm extended lag phase. | Growth to 10^6 delayed by ([9]; 2000 ppm): 2000 ppm delayed growth to 10^6 by 7 d. | Effect on growth [10]: No effect with 2000 ppm
